± gives the expanded uncertainty stated by the source.
Conditions: Liquid

CCCCCCC [heptane]
viscosity [mPa·s]
Conditions	293.15 K	298.15 K	313.15 K	333.15 K	353.15 K	363.15 K
100 kPa, Vibrating wire viscometry	0.4151 ± 0.0081	0.3914 ± 0.0077	0.3379 ± 0.007	0.2821 ± 0.0062	0.2406 ± 0.0057	0.2224 ± 0.0055
1000 kPa, Vibrating wire viscometry	0.4202 ± 0.0081	0.3962 ± 0.0078	0.3412 ± 0.007	0.2844 ± 0.0063	0.2435 ± 0.0057	0.2254 ± 0.0055
5000 kPa, Falling or rolling sphere viscometry	0.4359 ± 0.022	–	0.3564 ± 0.018	–	–	–
5000 kPa, Vibrating wire viscometry	0.4354 ± 0.0083	0.4142 ± 0.008	0.354 ± 0.0072	0.2965 ± 0.0064	0.2549 ± 0.0059	0.2374 ± 0.0057
10000 kPa, Falling or rolling sphere viscometry	0.4603 ± 0.023	–	0.3756 ± 0.019	–	–	–
10000 kPa, Vibrating wire viscometry	0.4579 ± 0.0087	0.4329 ± 0.0083	0.3735 ± 0.0075	0.3121 ± 0.0066	0.2672 ± 0.006	0.2493 ± 0.0058
20000 kPa, Falling or rolling sphere viscometry	0.5074 ± 0.025	–	0.4131 ± 0.021	–	–	–
20000 kPa, Vibrating wire viscometry	0.5013 ± 0.0093	0.4756 ± 0.0089	0.4074 ± 0.0079	0.3415 ± 0.007	0.2957 ± 0.0064	0.2757 ± 0.0062
30000 kPa, Falling or rolling sphere viscometry	0.5517 ± 0.027	–	0.4518 ± 0.022	–	–	–
30000 kPa, Vibrating wire viscometry	0.5459 ± 0.0099	0.5175 ± 0.0095	0.4462 ± 0.0085	0.3746 ± 0.0075	0.3216 ± 0.0068	0.2996 ± 0.0065
40000 kPa, Falling or rolling sphere viscometry	0.5949 ± 0.029	–	0.4899 ± 0.024	–	–	–
40000 kPa, Vibrating wire viscometry	0.595 ± 0.011	0.5613 ± 0.01	0.4806 ± 0.009	0.4061 ± 0.0079	0.3493 ± 0.0071	0.3252 ± 0.0068
50000 kPa, Vibrating wire viscometry	0.6406 ± 0.011	0.6081 ± 0.011	0.5208 ± 0.0096	0.4355 ± 0.0083	0.373 ± 0.0075	0.3504 ± 0.0072
60000 kPa, Falling or rolling sphere viscometry	0.6912 ± 0.034	–	0.5683 ± 0.028	–	–	–
60000 kPa, Vibrating wire viscometry	0.6927 ± 0.012	0.6535 ± 0.011	0.5563 ± 0.01	0.4681 ± 0.0088	0.4019 ± 0.0079	0.3754 ± 0.0075
70000 kPa, Vibrating wire viscometry	0.7446 ± 0.013	0.7026 ± 0.012	0.5992 ± 0.011	0.5022 ± 0.0093	0.4304 ± 0.0083	0.3978 ± 0.0078
80000 kPa, Falling or rolling sphere viscometry	0.7864 ± 0.039	–	0.6498 ± 0.032	–	–	–
80000 kPa, Vibrating wire viscometry	0.7965 ± 0.014	0.7519 ± 0.013	0.64 ± 0.011	0.5337 ± 0.0098	0.457 ± 0.0087	0.4243 ± 0.0082
100000 kPa, Falling or rolling sphere viscometry	0.9027 ± 0.045	–	0.7309 ± 0.036	–	–	–
100000 kPa, Vibrating wire viscometry	0.9106 ± 0.015	0.8572 ± 0.015	0.7259 ± 0.013	0.603 ± 0.011	0.5119 ± 0.0094	0.4782 ± 0.009
120000 kPa, Falling or rolling sphere viscometry	1.031 ± 0.051	–	0.8186 ± 0.041	–	–	–
120000 kPa, Vibrating wire viscometry	1.028 ± 0.017	0.972 ± 0.016	0.8176 ± 0.014	0.6736 ± 0.012	0.5735 ± 0.01	0.5314 ± 0.0097
140000 kPa, Vibrating wire viscometry	1.16 ± 0.019	1.089 ± 0.018	0.9137 ± 0.015	0.7509 ± 0.013	0.6335 ± 0.011	0.5865 ± 0.01
